Species: Rattus norvegicus
Experiment: DrugMatrix - Regimen: Daily Repeat
Assay type: toxicity, organism-based, Sprague-Dawley
Set-up: regimen Daily Repeat, gender Male, age 6-8 weeks
Conditions: in vivo, po, route oral GAVAGE, […]; for ALKALINE PHOSPHATASE / ASPARTATE AMINOTRANSFERASE / BLOOD UREA NITROGEN / CARBON DIOXIDE / CHLORIDE / CHOLESTEROL / CREATINE PHOSPHOKINASE / CREATININE / GLUCOSE / LACTATE DEHYDROGENASE / LIPASE / PHOSPHORUS / POTASSIUM / SODIUM / TOTAL BILIRUBIN / TOTAL PROTEIN / URIC ACID / ALANINE AMINOTRANSFERASE / ALBUMIN: tissue Plasma
[1] = 0 mg/kg, 72 h, dose level Control, time 3 day
[2] = 0 mg/kg, 120 h, tissue Blood, dose level Control, time 5 day
[3] = 0 mg/kg, tissue Blood, dose level Control, time 14 day
[4] = 0 mg/kg, dose level Control, time 14 day
[5] = 1200 mg/kg, 72 h, tissue Blood, dose level High, time 3 day
[6] = 1200 mg/kg, tissue Blood, dose level High, time 14 day
[7] = 1200 mg/kg, dose level High, time 14 day

**Q.** Which “ALKALINE PHOSPHATASE” value [1] does the source give for `CC[C@H](C)C(=O)O[C@H]1C[C@H](O)C=C2C=C[C@H](C)[C@H](CC[C@@H](O)C[C@@H](O)CC(=O)O)[C@H]21` [PRAVASTATIN] here?
**A.** The value was 374.17 u/L.

**Q.** What about the “ASPARTATE AMINOTRANSFERASE” value [1] of the same compound?
**A.** Its value is 83.5 u/L.

**Q.** And the “BLOOD UREA NITROGEN” value [1]?
**A.** Its value is 14.5 mg/dL.

**Q.** What about the “CARBON DIOXIDE” value [1] of the same compound?
**A.** The value was 30 mmol/L.

**Q.** What about the CHLORIDE [1] of the same compound?
**A.** Its CHLORIDE is 100.5 MEQ/L.

**Q.** What about the CHOLESTEROL [1] of the same compound?
**A.** Its CHOLESTEROL is 71.33 mg/dL.

**Q.** And the “CREATINE PHOSPHOKINASE” value [1]?
**A.** The value was 268.33 u/L.

**Q.** And the CREATININE [1]?
**A.** Its CREATININE is 0.16 mg/dL.

**Q.** What about the GLUCOSE [1] of the same compound?
**A.** The GLUCOSE was 170.5 mg/dL.

**Q.** And the “LACTATE DEHYDROGENASE” value [1]?
**A.** Its value is 81.17 u/L.

**Q.** What about the LIPASE [1] of the same compound?
**A.** Its LIPASE is 16.67 u/L.

**Q.** What about the PHOSPHORUS [1] of the same compound?
**A.** Its PHOSPHORUS is 10.07 mg/dL.

**Q.** What about the POTASSIUM [1] of the same compound?
**A.** The POTASSIUM was 5.03 MEQ/L.

**Q.** And the SODIUM [1]?
**A.** The SODIUM was 142.92 MEQ/L.

**Q.** What about the “TOTAL BILIRUBIN” value [1] of the same compound?
**A.** Its value is 0.17 mg/dL.

**Q.** And the “TOTAL PROTEIN” value [1]?
**A.** Its value is 5.63 G/DL.

**Q.** What about the “URIC ACID” value [1] of the same compound?
**A.** The value was 0.5 mg/dL.

**Q.** What about the “ABSOLUTE SEGMENTED NEUTROPHIL” value [2] of the same compound?
**A.** The value was 646.83 CELLS/uL.

**Q.** What about the “NUCLEATED RED BLOOD CELLS” value [2] of the same compound?
**A.** Its value is 0.17 /100WBC.

**Q.** What about the ABSOLUTE BASOPHIL [3] of the same compound?
**A.** The ABSOLUTE BASOPHIL was 100 cells/µL.

**Q.** What about the ABSOLUTE EOSINOPHIL [3] of the same compound?
**A.** Its ABSOLUTE EOSINOPHIL is 57.5 cells/µL.

**Q.** And the ABSOLUTE LYMPHOCYTE [3]?
**A.** The ABSOLUTE LYMPHOCYTE was 11800 cells/µL.

**Q.** What about the ABSOLUTE MONOCYTE [3] of the same compound?
**A.** Its ABSOLUTE MONOCYTE is 290 cells/µL.

**Q.** What about the BASOPHIL [3] of the same compound?
**A.** The BASOPHIL was 0.47%.

**Q.** And the EOSINOPHIL [3]?
**A.** The EOSINOPHIL was 0.41%.

**Q.** What about the “ERYTHROCYTE COUNT” value [3] of the same compound?
**A.** Its value is 7.31 x10E6/uL.

**Q.** And the HEMATOCRIT [3]?
**A.** Its HEMATOCRIT is 46.8%.

**Q.** What about the HEMOGLOBIN [3] of the same compound?
**A.** Its HEMOGLOBIN is 14.69 G/DL.

**Q.** What about the “LEUKOCYTE COUNT” value [3] of the same compound?
**A.** Its value is 14.73 x10E3/uL.

**Q.** And the LYMPHOCYTE [3]?
**A.** The LYMPHOCYTE was 80.94%.

**Q.** And the “MEAN CORPUSCULAR HEMOGLOBIN” value [3]?
**A.** Its value is 20.09 pg.

**Q.** And the “MEAN CORPUSCULAR HEMOGLOBIN CONCENTRATION” value [3]?
**A.** Its value is 31.41 G/DL.

**Q.** What about the “MEAN CORPUSCULAR VOLUME” value [3] of the same compound?
**A.** Its value is 64.03 fL.

**Q.** What about the MONOCYTE [3] of the same compound?
**A.** The MONOCYTE was 1.9%.

**Q.** What about the NEUTROPHIL [3] of the same compound?
**A.** Its NEUTROPHIL is 15.1%.

**Q.** And the “PLATELET COUNT” value [3]?
**A.** The value was 1273.62 x10E3/uL.

**Q.** And the “ALANINE AMINOTRANSFERASE” value [4]?
**A.** Its value is 56.75 u/L.

**Q.** And the ALBUMIN [4]?
**A.** The ALBUMIN was 3.84 G/DL.

**Q.** And the “ALKALINE PHOSPHATASE” value [4]?
**A.** The value was 530.25 u/L.

**Q.** And the “ASPARTATE AMINOTRANSFERASE” value [4]?
**A.** The value was 78.88 u/L.

**Q.** What about the “BLOOD UREA NITROGEN” value [4] of the same compound?
**A.** Its value is 12.25 mg/dL.

**Q.** And the “CARBON DIOXIDE” value [4]?
**A.** The value was 41.38 mmol/L.

**Q.** And the CHLORIDE [4]?
**A.** The CHLORIDE was 102.38 MEQ/L.

**Q.** What about the CHOLESTEROL [4] of the same compound?
**A.** Its CHOLESTEROL is 67.88 mg/dL.

**Q.** And the “CREATINE PHOSPHOKINASE” value [4]?
**A.** Its value is 297.25 u/L.

**Q.** What about the CREATININE [4] of the same compound?
**A.** Its CREATININE is 0.61 mg/dL.

**Q.** And the GLUCOSE [4]?
**A.** The GLUCOSE was 161.88 mg/dL.

**Q.** And the “LACTATE DEHYDROGENASE” value [4]?
**A.** Its value is 161.38 u/L.

**Q.** And the LIPASE [4]?
**A.** The LIPASE was 16.75 u/L.

**Q.** And the PHOSPHORUS [4]?
**A.** Its PHOSPHORUS is 10.13 mg/dL.

**Q.** And the POTASSIUM [4]?
**A.** The POTASSIUM was 6.73 MEQ/L.

**Q.** And the SODIUM [4]?
**A.** The SODIUM was 149 MEQ/L.

**Q.** What about the “TOTAL BILIRUBIN” value [4] of the same compound?
**A.** The value was 0.29 mg/dL.

**Q.** And the “TOTAL PROTEIN” value [4]?
**A.** The value was 6.73 G/DL.

**Q.** What about the “URIC ACID” value [4] of the same compound?
**A.** The value was 1.14 mg/dL.

**Q.** What about the “ABSOLUTE BASOPHIL” value [5] of the same compound?
**A.** The value was 0 CELLS/uL.

**Q.** What about the BASOPHIL [5] of the same compound?
**A.** The BASOPHIL was 0%.

**Q.** And the “NUCLEATED RED BLOOD CELLS” value (1200 mg/kg, 120 h, tissue Blood, dose level High, time 5 day)?
**A.** Its value is 0 /100WBC.

**Q.** And the ABSOLUTE BASOPHIL [6]?
**A.** Its ABSOLUTE BASOPHIL is 66.7 cells/µL.

**Q.** What about the ABSOLUTE EOSINOPHIL [6] of the same compound?
**A.** Its ABSOLUTE EOSINOPHIL is 80 cells/µL.

**Q.** What about the ABSOLUTE LYMPHOCYTE [6] of the same compound?
**A.** The ABSOLUTE LYMPHOCYTE was 4950 cells/µL.

**Q.** And the “ABSOLUTE MONOCYTE” value [6]?
**A.** Its value is 1.18 CELLS/uL.

**Q.** What about the BASOPHIL [6] of the same compound?
**A.** The BASOPHIL was 0.33%.

**Q.** And the EOSINOPHIL [6]?
**A.** Its EOSINOPHIL is 0.5%.

**Q.** What about the “ERYTHROCYTE COUNT” value [6] of the same compound?
**A.** Its value is 8.11 x10E6/uL.

**Q.** What about the HEMATOCRIT [6] of the same compound?
**A.** The HEMATOCRIT was 47.4%.

**Q.** What about the HEMOGLOBIN [6] of the same compound?
**A.** The HEMOGLOBIN was 15.87 G/DL.

**Q.** What about the “LEUKOCYTE COUNT” value [6] of the same compound?
**A.** The value was 17.97 x10E3/uL.

**Q.** What about the LYMPHOCYTE [6] of the same compound?
**A.** Its LYMPHOCYTE is 29.8%.

**Q.** What about the “MEAN CORPUSCULAR HEMOGLOBIN” value [6] of the same compound?
**A.** The value was 19.53 pg.

**Q.** What about the “MEAN CORPUSCULAR HEMOGLOBIN CONCENTRATION” value [6] of the same compound?
**A.** Its value is 33.43 G/DL.

**Q.** And the “MEAN CORPUSCULAR VOLUME” value [6]?
**A.** Its value is 58.47 fL.

**Q.** And the MONOCYTE [6]?
**A.** The MONOCYTE was 6.57%.

**Q.** What about the NEUTROPHIL [6] of the same compound?
**A.** The NEUTROPHIL was 58.53%.

**Q.** And the “PLATELET COUNT” value [6]?
**A.** Its value is 1135 x10E3/uL.

**Q.** What about the “ALANINE AMINOTRANSFERASE” value [7] of the same compound?
**A.** The value was 669.33 u/L.

**Q.** What about the ALBUMIN [7] of the same compound?
**A.** Its ALBUMIN is 3.17 G/DL.

**Q.** And the “ALKALINE PHOSPHATASE” value [7]?
**A.** Its value is 461 u/L.

**Q.** And the “ASPARTATE AMINOTRANSFERASE” value [7]?
**A.** The value was 5256.67 u/L.

**Q.** What about the “BLOOD UREA NITROGEN” value [7] of the same compound?
**A.** The value was 60.67 mg/dL.

**Q.** And the “CARBON DIOXIDE” value [7]?
**A.** The value was 33.33 mmol/L.

**Q.** And the CHLORIDE [7]?
**A.** Its CHLORIDE is 95.67 MEQ/L.

**Q.** What about the CHOLESTEROL [7] of the same compound?
**A.** Its CHOLESTEROL is 47 mg/dL.

**Q.** And the “CREATINE PHOSPHOKINASE” value [7]?
**A.** Its value is 10626.67 u/L.

**Q.** And the CREATININE [7]?
**A.** The CREATININE was 0.97 mg/dL.

**Q.** What about the GLUCOSE [7] of the same compound?
**A.** Its GLUCOSE is 113.67 mg/dL.

**Q.** And the “LACTATE DEHYDROGENASE” value [7]?
**A.** Its value is 1229.67 u/L.

**Q.** What about the LIPASE [7] of the same compound?
**A.** Its LIPASE is 228.5 u/L.

**Q.** And the PHOSPHORUS [7]?
**A.** Its PHOSPHORUS is 11.03 mg/dL.

**Q.** What about the POTASSIUM [7] of the same compound?
**A.** Its POTASSIUM is 6.93 MEQ/L.

**Q.** And the SODIUM [7]?
**A.** Its SODIUM is 141 MEQ/L.

**Q.** And the “TOTAL BILIRUBIN” value [7]?
**A.** Its value is 0.3 mg/dL.

**Q.** And the “TOTAL PROTEIN” value [7]?
**A.** The value was 5.53 G/DL.

**Q.** And the “URIC ACID” value [7]?
**A.** Its value is 1.53 mg/dL.

Source: ChEMBL document CHEMBL3885881, “DrugMatrix”
